Here are results for three compounds from patent publication US11976076B1 (priority 2023, dated 2024).

Values after ≈ are worked out from the molar mass of the structure shown.

This assay has as its system multidrug-resistant (MDR) strains of Mycobacterium tuberculosis. Kind of assay: microbe, parasite or virus in culture. Type of assay: cell-based. The following applies: 192 h, read-out: Anti-tubercular activity (MIC) MDR-TB.
For the compound `O=c1[nH]c(=O)c2c(-c3c[nH]c4ccccc34)nc(=S)[nH]c2[nH]1` [Compound 4a, 5-(1H-Indol-3-yl)-7-thioxo-7,8-dihydropyrimido[4,5-d]pyrimidine-2,4(1H,3H)-dione], the MIC worked out at 16 µg/mL (≈ 51.4 µM). With `O=c1[nH]c(=S)[nH]c2[nH]c(=S)nc(-c3c[nH]c4ccccc34)c12` [Compound 4b, 5-(1H-Indol-3-yl)-2,7-dithioxo-2,3,7,8-tetrahydropyrimido[4,5-d]pyrimidin-4(1H)-one], the MIC came out at 8 µg/mL (≈ 24.4 µM). With `Cn1c(=O)c2c(-c3c[nH]c4ccccc34)nc(=S)[nH]c2n(C)c1=O` [Compound 4c, 5-(1H-Indol-3-yl)-1,3-dimethyl-7-thioxo-7,8-dihydropyrimido[4,5-d]pyrimidine-2,4(1H,3H)-dione] the figure was 4 µg/mL (≈ 11.8 µM).
